From ChEMBL document CHEMBL1150280, “Mono-tetrahydrofuran annonaceous acetogenins from Annona squamosa as cytotoxic agents and calcium ion chelators” (J Nat Prod, 2008)

Legend:
MCF7 = experiment: cells; conditions: Homo sapiens, MCF7, 72 h
Description: Cytotoxicity against human MCF7 cells after 3 days by MTT assay

[1] = Cytotoxicity against human Hep3B cells after 3 days by MTT assay; conditions: 72 h
HepG2 = experiment: Cytotoxicity against human HepG2 cells after 3 days by MTT assay; conditions: HepG2, 72 h
MDA-MB-231 = experiment: cells; conditions: Homo sapiens, MDA-MB-231, 72 h
Description: Cytotoxicity against human MDA-MB-231 cells after 3 days by MTT assay

A549 = experiment: Cytotoxicity against human A549 cells after 3 days by MTT assay; conditions: A549, 72 h

| Compound | IC50 (MCF7) [µM] | IC50 (MDA-MB-231) [µM] | IC50 [1] [µM] | IC50 (HepG2) [µM] | IC50 (A549) [µM] |
| --- | --- | --- | --- | --- | --- |
| CCCCCCCCCC[C@@H](O)[C@H]1CC[C@H]([C@H](O)CCCCCCCCCCCCCCCCC2=C[C@H](C)OC2=O)O1 | 3.31 |  |  |  |  |
| CCCCCCCCCCCCCC[C@@H](O)[C@H]1CC[C@H]([C@H](O)CCCCCCCCCCCCC2=C[C@H](C)OC2=O)O1 | 28.3 |  |  |  |  |
| CCCCCCCCCC[C@@H](O)[C@H]1CC[C@@H]([C@@H](O)CCCCCCCCCCCCCCC2=C[C@H](C)OC2=O)O1 | 30.7 |  |  |  |  |
| CCCCCCCCCCCCC(O)C1CCC(C(O)CCCCCCCCCCCCCCC2=CC(C)OC2=O)O1 (stereo not given) | 8.11 |  |  |  |  |
| CCCCCCCCCC/C=C\CC[C@@H](O)[C@H]1CC[C@H]([C@H](O)CCCCCCCCCCCCC2=C[C@H](C)OC2=O)O1 [BULLATENCIN] |  |  | 31.4 |  |  |
| CCCCCCCCCCCC[C@H](O)[C@H]1CC[C@@H]([C@@H](O)CCCCCCCCCCCCC2=C[C@H](C)OC2=O)O1 [SQUAFOSACIN F] | 35.1 | > 36 |  |  |  |

The next lines start with results.

| IC50 (MCF7) [µM] | IC50 (MDA-MB-231) [µM] | Compound | IC50 [1] [µM] | IC50 (HepG2) [µM] | IC50 (A549) [µM] |
| --- | --- | --- | --- | --- | --- |
|  | 0.0703 | CC(=O)O[C@H]1C(=O)[C@@]2(C)[C@H]([C@H](OC(=O)c3ccccc3)[C@]3(O)C[C@H](OC(=O)[C@H](O)[C@@H](NC(=O)c4ccccc4)c4ccccc4)C(C)=C1C3(C)C)[C@]1(OC(C)=O)CO[C@@H]1C[C@@H]2O [PACLITAXEL] | 0.13 | 0.0468 |  |
| 2.83 | 0.63 | CCCCCCC(O)CCC[C@H](O)[C@H]1CC[C@H]([C@H](O)CC[C@@H](O)[C@H](O)CCCCCCCCCCCCC2=C[C@H](C)OC2=O)O1 (stereo not given in full) [SQUADIOLIN A] | 3.52 | 0.0056 | < 0.2 |
| 5.47 | 0.28 | CCCCCCCCCC[C@H](O)[C@@H](O)CC[C@H](O)[C@@H](O)CC[C@@H](O)[C@H]1CC[C@H](CCCCCCCCCC2=C[C@H](C)OC2=O)O1 [SQUADIOLIN B] | 6.98 | 0.011 | 2.75 |
| 3.62 | 14.5 | CCCCCCCCCCCC[C@H](O)[C@@H](O)CCCC[C@@H](O)[C@H]1CC[C@H](CCCCCCCC(O)CC2=C[C@H](C)OC2=O)O1 (stereo not given in full) [SQUADIOLIN C] |  | 3.48 | 8.11 |
| 0.96 | 17 | CCCCCCC(O)C(O)CCCCCC[C@@H](O)[C@H]1CC[C@H]([C@H](O)CCCCCCCCCCCCC2=C[C@H](C)OC2=O)O1 (stereo not given in full) [SQUAFOSACIN B] | 0.72 | 0.71 | 0.66 |
| 26.4 | 18.1 | CCCCCCCCCC[C@@H](O)[C@H]1CC[C@H]([C@H](O)CCCCCC(O)CCCCCCCCC2=C[C@H](C)OC2=O)O1 (stereo not given in full) [SQUAFOSACIN C] | 14 | 18.9 | 21 |
| 29.8 |  | CCCCCCCCCC[C@H](O)[C@H]1CC[C@@H]([C@@H](O)CCCCCCCCCCCCCCCCC2=C[C@H](C)OC2=O)O1 [SQUAFOSACIN G] |  |  |  |
